Source: PubChem BioAssay AID2060609 (Molecular Pharmacology Branch, DTP, NCI, 2025)
pIC50: −log10 of the molar value.

Tested on: 855422-203-R-J1-PDC complex spheroids, viability
Assay: Anticancer human tumor 855422-203-R-J1-PDC patient-derived bladder carcinoma cell line growth inhibition [CLK]
Settings: for pIC50: curve of first compound; for viability, T/C: stronger effect = lower value
Text: A high-throughput screen of multi-cell type tumor spheroids was designed to identify active combinations of […] and targeted small molecules. Complex spheroids include a stromal component modeled by human endothelial cells (HUVEC) and fibroblasts modeled by human mesenchymal stem cells (MSCs). The concentration ranges selected for each drug and investigational agent were based upon clinically achievable concentrations if the clinical Cmax of the agent was known.
Compounds. The drugs and investigational agents: cirtuvivint (SM08502; NSC835563), CC-671 (NSC850746), vemurafenib (NSC761431), tapotoclax (NSC804041), sotorasib (NSC818433), adagrasib (NSC831453), MRTX-1133 (NSC836407), BAY2416964 (NSC825713), copanlisib (NSC816437), inavolisib (NSC800729), abemaciclib (NSC768073), osimertinib (NSC779217), entinostat (NSC756642), eltanexor (KPT-8602, NSC794443), venetoclax (NSC766270), ceralasertib (NSC777638), bortezomib (NSC756655), olaparib (NSC753686), talazoparib (NSC767125), alisertib (NSC759677), peposertib (NSC802822), gemcitabine (NSC613327), 5-fluorouracil (NSC19893), SN-38 (NSC673596), oxaliplatin (NSC266046), paclitaxel (NSC125973), and doxorubicin (NSC123127), were obtained from the National Cancer Institute (NCI) Developmental Therapeutics Program Chemical Repository. The FDA-approved anticancer drug set is available from the Developmental Therapeutics Program at https://dtp.cancer.gov/organization/dscb/obtaining/available plates.htm. […] The stock solutions were prepared in dimethyl sulfoxide (DMSO, Sigma-Aldrich, St. Louis, MO, cat. D2650), except for the platinum complexes which were prepared in saline (Quality Biological, Gaithersburg, MD, cat. 114-055-101), at 800-fold the tested concentration and stored at -70 degrees C prior to their use. All drugs and investigational agents were tested over a range starting from a high concentration at or near the clinical Cmax and decreasing in half-log increments. If the clinical Cmax for an agent had not been determined, the highest concentration tested was 10 microM.
Cell Culture. All cells were maintained in an incubator at 37 degrees C and 5% CO2 with 95% humidity. The PDC lines were cultured according to standard operating procedures established by the NCI PDMR. Briefly, all PDCs were thawed and cultured in Matrigel-coated flasks prepared with a working solution of 1X Ham's F-12 nutrient mix, without supplementation (Invitrogen, Waltham, MA, cat. 11765054), 100 U/mL penicillin-streptomycin (Invitrogen, cat. 15140122), and 2.5% Matrigel (Corning Inc., Corning, NY, cat. 354248) for the first three passages. The 947758-054-R-J2-PDC line was cultured in 6B/Colon 1A media, which includes advanced DMEM/F-12 (Thermo Fisher Scientific, cat. 12634028), 10 mM HEPES (Thermo Fisher Scientific, cat. 15630080), 1X GlutaMAX supplement (Thermo Fisher Scientific, cat. 35050061), 0.1 mg/mL primocin (InvivoGen, cat. ant-pm-2), 10% defined fetal bovine serum, heat inactivated (HyClone Laboratories Inc., cat. SH30070.03HI), 1.25 mM N-Acetyl-L-cysteine (Sigma-Aldrich, cat. A9165), 10 mM nicotinamide (Sigma-Aldrich, cat. N0636), 1X B-27 supplement (Thermo Fisher Scientific, cat. 17504044), 1X N-2 supplement (Thermo Fisher Scientific, cat. 17502048), and 10 microM Y-27632 dihydrochloride (Tocris Bioscience, cat. 1254). The 876862-298-R-J1-PDC was cultured in 6E media, which includes all 6B/Colon 1A media components plus 50% L-WRN conditioned media (ATCC, cat. CRL-3276), 50 ng/mL recombinant human EGF recombinant protein (hEGF; Thermo Fisher Scientific, cat. PHG0311), 10 ng/mL recombinant human fibroblast growth factor 10 (hGFG-10; PeproTech, cat. 100-26), 1 ng/mL recombinant human fibroblast growth factor 2 (hFGF-2; PeproTech, cat. 100-18B), and 1 µM prostaglandin E2 (PGE2; Tocris, cat. 2296). The 227483-062-R1-J1-PDC line was cultured in Panc media, containing all 6E components except hFGF-2, with the addition of 500 nM SB-431542 (Selleckchem, cat. S1067) and 10 nM gastrin (Tocris, cat. 3006). […]
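Also: spheroids exposed to drugs for seven days before readout.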
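For viability, T/C in this document: 100% = DMSO vehicle control wells.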

Compound: CC(C)CC(NC(=O)C(Cc1ccccc1)NC(=O)c1cnccn1)B(O)O (centres undefined) + CNC(=O)c1ccc(Nc2nc(OC3CCCC3)c3c(-c4ccc5nc(C)oc5c4)c[nH]c3n2)c(OC)c1
- pIC50 (second compound 0.0316 µM): > 9.02
- pIC50 (second compound 0.1 µM): > 9.02
- pIC50 (second compound 0.316 µM): > 9.02
- pIC50 (second compound 1 µM): > 9.02
- pIC50 (second compound 3.16 µM): > 9.02
- pIC50 (second compound 10 µM): > 9.02
- viability, T/C (second compound 0.0316 µM, first compound 0.000949 µM): 4.13%
- viability, T/C (second compound 0.0316 µM, first compound 0.003 µM): 0.22%
- viability, T/C (second compound 0.0316 µM, first compound 0.00949 µM): 0.2%
- viability, T/C (second compound 0.0316 µM, first compound 0.03 µM): 0.21%
- viability, T/C (second compound 0.0316 µM, first compound 0.0949 µM): 0.17%
- viability, T/C (second compound 0.0316 µM, first compound 0.3 µM): 0.18%
- viability, T/C (second compound 0.1 µM, first compound 0.000949 µM): 2.95%
- viability, T/C (second compound 0.1 µM, first compound 0.003 µM): 0.2%
- viability, T/C (second compound 0.1 µM, first compound 0.00949 µM): 0.18%
- viability, T/C (second compound 0.1 µM, first compound 0.03 µM): 0.17%
- viability, T/C (second compound 0.1 µM, first compound 0.0949 µM): 0.17%
- viability, T/C (second compound 0.1 µM, first compound 0.3 µM): 0.49%
- viability, T/C (second compound 0.316 µM, first compound 0.000949 µM): 2.47%
- viability, T/C (second compound 0.316 µM, first compound 0.003 µM): 0.17%
- viability, T/C (second compound 0.316 µM, first compound 0.00949 µM): 0.13%
- viability, T/C (second compound 0.316 µM, first compound 0.03 µM): 0.13%
- viability, T/C (second compound 0.316 µM, first compound 0.0949 µM): 0.12%
- viability, T/C (second compound 0.316 µM, first compound 0.3 µM): 0.54%
- viability, T/C (second compound 1 µM, first compound 0.000949 µM): 1.78%
- viability, T/C (second compound 1 µM, first compound 0.003 µM): 0.13%
- viability, T/C (second compound 1 µM, first compound 0.00949 µM): 0.13%
- viability, T/C (second compound 1 µM, first compound 0.03 µM): 0.1%
- viability, T/C (second compound 1 µM, first compound 0.0949 µM): 0.14%
- viability, T/C (second compound 1 µM, first compound 0.3 µM): 0.1%
- viability, T/C (second compound 3.16 µM, first compound 0.000949 µM): 1.68%
- viability, T/C (second compound 3.16 µM, first compound 0.003 µM): 0.13%
- viability, T/C (second compound 3.16 µM, first compound 0.00949 µM): 0.65%
- viability, T/C (second compound 3.16 µM, first compound 0.03 µM): 0.08%
- viability, T/C (second compound 3.16 µM, first compound 0.0949 µM): 0.1%
- viability, T/C (second compound 3.16 µM, first compound 0.3 µM): 0.11%
- viability, T/C (second compound 10 µM, first compound 0.000949 µM): 1.83%
- viability, T/C (second compound 10 µM, first compound 0.003 µM): 0.15%
- viability, T/C (second compound 10 µM, first compound 0.00949 µM): 0.13%
- viability, T/C (second compound 10 µM, first compound 0.03 µM): 0.12%
- viability, T/C (second compound 10 µM, first compound 0.0949 µM): 0.28%
- viability, T/C (second compound 10 µM, first compound 0.3 µM): 0.12%

Compound: Nc1ccccc1NC(=O)c1ccc(CNC(=O)OCc2cccnc2)cc1 + CNC(=O)c1ccc(Nc2nc(OC3CCCC3)c3c(-c4ccc5nc(C)oc5c4)c[nH]c3n2)c(OC)c1
- pIC50 (second compound 0.0316 µM): 5.95
- pIC50 (second compound 0.1 µM): > 7.50
- pIC50 (second compound 0.316 µM): > 7.50
- pIC50 (second compound 1 µM): > 7.50
- pIC50 (second compound 3.16 µM): > 7.50
- pIC50 (second compound 10 µM): > 7.50
- viability, T/C (second compound 0.0316 µM, first compound 0.0316 µM): 77.8%
- viability, T/C (second compound 0.0316 µM, first compound 0.1 µM): 81.3%
- viability, T/C (second compound 0.0316 µM, first compound 0.316 µM): 79.9%
- viability, T/C (second compound 0.0316 µM, first compound 1 µM): 49.4%
- viability, T/C (second compound 0.0316 µM, first compound 3.16 µM): 22.4%
- viability, T/C (second compound 0.0316 µM, first compound 10 µM): 1.4%
- viability, T/C (second compound 0.1 µM, first compound 0.0316 µM): 46.5%
- viability, T/C (second compound 0.1 µM, first compound 0.1 µM): 43.9%
- viability, T/C (second compound 0.1 µM, first compound 0.316 µM): 44.9%
- viability, T/C (second compound 0.1 µM, first compound 1 µM): 27.7%
- viability, T/C (second compound 0.1 µM, first compound 3.16 µM): 21.1%
- viability, T/C (second compound 0.1 µM, first compound 10 µM): 1.14%
- viability, T/C (second compound 0.316 µM, first compound 0.0316 µM): 20.8%
- viability, T/C (second compound 0.316 µM, first compound 0.1 µM): 16.2%
- viability, T/C (second compound 0.316 µM, first compound 0.316 µM): 16.9%
- viability, T/C (second compound 0.316 µM, first compound 1 µM): 18.2%
- viability, T/C (second compound 0.316 µM, first compound 3.16 µM): 15.3%
- viability, T/C (second compound 0.316 µM, first compound 10 µM): 0.51%
- viability, T/C (second compound 1 µM, first compound 0.0316 µM): 18.5%
- viability, T/C (second compound 1 µM, first compound 0.1 µM): 17.9%
- viability, T/C (second compound 1 µM, first compound 0.316 µM): 14.9%
- viability, T/C (second compound 1 µM, first compound 1 µM): 13.2%
- viability, T/C (second compound 1 µM, first compound 3.16 µM): 10.4%
- viability, T/C (second compound 1 µM, first compound 10 µM): 0.17%
- viability, T/C (second compound 3.16 µM, first compound 0.0316 µM): 17.5%
- viability, T/C (second compound 3.16 µM, first compound 0.1 µM): 18.6%
- viability, T/C (second compound 3.16 µM, first compound 0.316 µM): 12%
- viability, T/C (second compound 3.16 µM, first compound 1 µM): 15.3%
- viability, T/C (second compound 3.16 µM, first compound 3.16 µM): 7.63%
- viability, T/C (second compound 3.16 µM, first compound 10 µM): 0.29%
- viability, T/C (second compound 10 µM, first compound 0.0316 µM): 19.9%
- viability, T/C (second compound 10 µM, first compound 0.1 µM): 13.6%
- viability, T/C (second compound 10 µM, first compound 0.316 µM): 16.6%
- viability, T/C (second compound 10 µM, first compound 1 µM): 12.1%
- viability, T/C (second compound 10 µM, first compound 3.16 µM): 8.45%
- viability, T/C (second compound 10 µM, first compound 10 µM): 0.69%
